Results reported in PubChem BioAssay AID2060483 (Molecular Pharmacology Branch, DTP, NCI, 2025).
pIC50: −log10 of the molar value.

Test system: K24384-001-R-PDC complex spheroids, viability
Assay: Anticancer human tumor K24384-001-R-PDC patient-derived pancreatic adenocarcinoma cell line growth inhibition [GQUAD]
Details: for pIC50: curve of first compound; for viability, T/C: stronger effect = lower value
From the text: DNA G-quadruplex Stabilizer Agents in Combinations in Complex Spheroids
A high-throughput screen of multi-cell type tumor spheroids was designed to identify active combinations of DNA G-quadruplex stabilizer agents and targeted small molecules. Complex spheroids include a stromal component modeled by human endothelial cells (HUVEC) and fibroblasts modeled by human mesenchymal stem cells (MSCs). The concentration ranges selected for each drug and investigational agent were based upon clinically achievable concentrations if the clinical Cmax of the agent was known.
Compounds. The drugs and investigational agents: pidnarulex (CX-5461; NSC782164), APTO-253 (NSC789042), BRACO-19 (NSC847499), peposertib (NSC802822), ceralasertib (NSC780249), elimusertib (NSC800525), camonsertib (NSC841442), AZD-1390 (NSC803789), olaparib (NSC753686), talazoparib (NSC767125), ART-558 (NSC835418), sotorasib (NSC818433), MRTX-1133 (NSC836407), SN-38 (NSC673596), topotecan (NSC609699), etoposide (NSC141540), doxorubicin (NSC123127), gemcitabine (NSC613327), 5-fluorouracil (NSC19893), paclitaxel (NSC125973), vemurafenib (NSC761431), panobinostat (NSC761190), R-306465 (JNJ-16241199; NSC773264), adavosertib (NSC754352), TP-3654 (NSC805149), carboplatin (NSC241240), KSQ-4279 (NSC840948), and staurosporine (NSC755774) were obtained from the National Cancer Institute (NCI) Developmental Therapeutics Program Chemical Repository (34). The FDA-approved anticancer drug set is available from the NCI Developmental Therapeutics Program. […] The stock solutions were prepared in dimethyl sulfoxide (DMSO, Sigma-Aldrich, St. Louis, MO, cat. D2650) at 800-fold the tested concentration and stored at -70 degrees C prior to their use. All drugs and investigational agents were tested over a range starting from a high concentration at or near the clinical Cmax and decreasing in half-log increments. If the clinical Cmax for an agent had not been determined, the highest concentration tested was 10 microM.
2.3 Cell Culture. All cells were maintained in an incubator at 37 degrees C and 5% CO2 with 95% humidity. The PDC lines were cultured according to standard operating procedures established by the NCI PDMR. All PDCs were thawed and cultured in Matrigel-coated flasks prepared with a working solution of 1X Ham's F-12 nutrient mix, without supplementation (Invitrogen, cat. 11765054), 100 U/mL penicillin-streptomycin (Invitrogen, cat. 15140122), and 2.5% Matrigel (Corning Inc., cat. 354248) for the first three passages. The 857933-349-R-J2-PDC line was cultured in 6C/Colon 1B media, which includes advanced DMEM/F-12 (Thermo Fisher Scientific, cat. 12634028), 10 mM HEPES (Thermo Fisher Scientific, cat. 15630080), 1X GlutaMAX supplement (Thermo Fisher Scientific, cat. 35050061), 0.1 mg/mL primocin (InvivoGen, cat. ant-pm-2), 10% defined fetal bovine serum, heat inactivated (HyClone Laboratories Inc., cat. SH30070.03HI), 50% L-WRN conditioned media (ATCC, cat. CRL-3276), 1.25 mM N-Acetyl-L-cysteine (Sigma-Aldrich, cat. A9165), 10 mM nicotinamide (Sigma-Aldrich, cat. N0636), 1X B-27 supplement (Thermo Fisher Scientific, cat. 17504044), 1X N-2 supplement (Thermo Fisher Scientific, cat. 17502048), 10 microM Y-27632 dihydrochloride (Tocris Bioscience, cat. 1254), and 50 ng/mL human EGF recombinant protein (Thermo Fisher Scientific, cat. PHG0311). The 485176-168-R4-J1-PDC line was cultured in Panc media, which includes all 6C/Colon 1B media components plus 100 ng/mL human FGF-10 (Thermo Fisher Scientific, cat. 100-26), 500 nM SB-431542 (Selleckchem, cat. S1067), and gastrin (Tocris, cat. 3006).
[…]

[1] = second compound 0.0316 µM, first compound 0.0316 µM
[2] = second compound 0.0316 µM, first compound 0.316 µM
[3] = second compound 0.1 µM, first compound 0.0316 µM
[4] = second compound 0.1 µM, first compound 0.316 µM
[5] = second compound 0.316 µM, first compound 0.0316 µM
[6] = second compound 0.316 µM, first compound 0.316 µM
[7] = second compound 1 µM, first compound 0.0316 µM
[8] = second compound 1 µM, first compound 0.316 µM
[9] = second compound 3.16 µM, first compound 0.0316 µM
[10] = second compound 3.16 µM, first compound 0.316 µM
[11] = second compound 10 µM, first compound 0.0316 µM
[12] = second compound 10 µM, first compound 0.316 µM
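Note: spheroids exposed to compounds for seven days.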

SMILES: CCc1c2c(nc3ccc(O)cc13)-c1cc3c(c(=O)n1C2)COC(=O)[C@]3(O)CC + CN(C)c1ccc(Nc2c3ccc(NC(=O)CCN4CCCC4)cc3nc3cc(NC(=O)CCN4CCCC4)ccc23)cc1
- pIC50 (second compound 0.0316 µM): 8.13
- pIC50 (second compound 0.1 µM): 8.05
- pIC50 (second compound 0.316 µM): 8.25
- pIC50 (second compound 1 µM): 8.25
- pIC50 (second compound 3.16 µM): 8.46
- pIC50 (second compound 10 µM): 7.79
- viability, T/C (second compound 0.0316 µM, first compound 0.000999 µM): 80.2%
- viability, T/C (second compound 0.0316 µM, first compound 0.00316 µM): 78.2%
- viability, T/C (second compound 0.0316 µM, first compound 0.00999 µM): 39.6%
- viability, T/C [1]: 32.2%
- viability, T/C (second compound 0.0316 µM, first compound 0.0999 µM): 35.4%
- viability, T/C [2]: 30.3%
- viability, T/C (second compound 0.1 µM, first compound 0.000999 µM): 69.6%
- viability, T/C (second compound 0.1 µM, first compound 0.00316 µM): 62.7%
- viability, T/C (second compound 0.1 µM, first compound 0.00999 µM): 49.7%
- viability, T/C [3]: 34.2%
- viability, T/C (second compound 0.1 µM, first compound 0.0999 µM): 36.1%
- viability, T/C [4]: 32.3%
- viability, T/C (second compound 0.316 µM, first compound 0.000999 µM): 73.2%
- viability, T/C (second compound 0.316 µM, first compound 0.00316 µM): 65.2%
- viability, T/C (second compound 0.316 µM, first compound 0.00999 µM): 35.2%
- viability, T/C [5]: 42.8%
- viability, T/C (second compound 0.316 µM, first compound 0.0999 µM): 33.6%
- viability, T/C [6]: 26.3%
- viability, T/C (second compound 1 µM, first compound 0.000999 µM): 69.8%
- viability, T/C (second compound 1 µM, first compound 0.00316 µM): 58.2%
- viability, T/C (second compound 1 µM, first compound 0.00999 µM): 39.9%
- viability, T/C [7]: 39.9%
- viability, T/C (second compound 1 µM, first compound 0.0999 µM): 28.6%
- viability, T/C [8]: 28%
- viability, T/C (second compound 3.16 µM, first compound 0.000999 µM): 82.3%
- viability, T/C (second compound 3.16 µM, first compound 0.00316 µM): 51.2%
- viability, T/C (second compound 3.16 µM, first compound 0.00999 µM): 37%
- viability, T/C [9]: 37.5%
- viability, T/C (second compound 3.16 µM, first compound 0.0999 µM): 34%
- viability, T/C [10]: 30.9%
- viability, T/C (second compound 10 µM, first compound 0.000999 µM): 70.7%
- viability, T/C (second compound 10 µM, first compound 0.00316 µM): 61.2%
- viability, T/C (second compound 10 µM, first compound 0.00999 µM): 59.4%
- viability, T/C [11]: 37.3%
- viability, T/C (second compound 10 µM, first compound 0.0999 µM): 36.6%
- viability, T/C [12]: 32.8%

SMILES: COc1cccc2c1C(=O)c1c(O)c3c(c(O)c1C2=O)CC(O)(C(=O)CO)CC3OC1CC(N)C(O)C(C)O1 (centres undefined) + CN(C)c1ccc(Nc2c3ccc(NC(=O)CCN4CCCC4)cc3nc3cc(NC(=O)CCN4CCCC4)ccc23)cc1
- pIC50 (second compound 0.0316 µM): 6.67
- pIC50 (second compound 0.1 µM): 6.74
- pIC50 (second compound 0.316 µM): 6.92
- pIC50 (second compound 1 µM): 6.83
- pIC50 (second compound 3.16 µM): 6.77
- pIC50 (second compound 10 µM): 6.61
- viability, T/C [1]: 94.6%
- viability, T/C (second compound 0.0316 µM, first compound 0.1 µM): 57.3%
- viability, T/C [2]: 54.4%
- viability, T/C (second compound 0.0316 µM, first compound 1 µM): 18.4%
- viability, T/C (second compound 0.0316 µM, first compound 3.16 µM): 4.88%
- viability, T/C (second compound 0.0316 µM, first compound 10 µM): 3.9%
- viability, T/C [3]: 92.5%
- viability, T/C (second compound 0.1 µM, first compound 0.1 µM): 63.3%
- viability, T/C [4]: 38.2%
- viability, T/C (second compound 0.1 µM, first compound 1 µM): 19.1%
- viability, T/C (second compound 0.1 µM, first compound 3.16 µM): 5.65%
- viability, T/C (second compound 0.1 µM, first compound 10 µM): 3.5%
- viability, T/C [5]: 79.4%
- viability, T/C (second compound 0.316 µM, first compound 0.1 µM): 51.2%
- viability, T/C [6]: 35.3%
- viability, T/C (second compound 0.316 µM, first compound 1 µM): 20.8%
- viability, T/C (second compound 0.316 µM, first compound 3.16 µM): 6.33%
- viability, T/C (second compound 0.316 µM, first compound 10 µM): 4.16%
- viability, T/C [7]: 90.7%
- viability, T/C (second compound 1 µM, first compound 0.1 µM): 53.8%
- viability, T/C [8]: 39.3%
- viability, T/C (second compound 1 µM, first compound 1 µM): 20.4%
- viability, T/C (second compound 1 µM, first compound 3.16 µM): 5.66%
- viability, T/C (second compound 1 µM, first compound 10 µM): 4.15%
- viability, T/C [9]: 83.2%
- viability, T/C (second compound 3.16 µM, first compound 0.1 µM): 56.4%
- viability, T/C [10]: 39.2%
- viability, T/C (second compound 3.16 µM, first compound 1 µM): 29.3%
- viability, T/C (second compound 3.16 µM, first compound 3.16 µM): 5.72%
- viability, T/C (second compound 3.16 µM, first compound 10 µM): 5.1%
- viability, T/C [11]: 80.9%
- viability, T/C (second compound 10 µM, first compound 0.1 µM): 101%
- viability, T/C [12]: 38%
- viability, T/C (second compound 10 µM, first compound 1 µM): 35%
- viability, T/C (second compound 10 µM, first compound 3.16 µM): 9.76%
- viability, T/C (second compound 10 µM, first compound 10 µM): 2.73%
